Laboratory results published in US20140170096A1, “SUNSCREEN COMPOSITIONS” (priority 2011, published 2014).
Entries after “also recorded” stand apart in the source; their conditions may differ. Where two headings read alike, the source gives them in different places.

Assays:
[1] = system: viruses in water surrounding coral nubbins; assay: Viral abundance and viral enrichment in seawater surrounding coral nubbins (microcosm incubation); details: for Total viral abundances (TVN): seawater surrounding Acropora sp. nubbins, compound concentration per Table 2; for Viral enrichment factor (VEF): ratio of viral abundances, end vs start of incubation
Description: (§1) In situ tests were performed on nubbins (i.e., small branches of about 3-6 cm) of the stony coral Acropora sp. The nubbins were incubated in microcosms in presence of known concentrations of various ingredients potentially to be included in the composition of the eco-compatible sunscreen cream. In particular, coral nubbins (including more than 3000 polyps each) were collected by scuba divers from the same colony, located at a depth of about 3 m on the edge of the reef slope. Sampling of nubbins was performed by means of forceps. The nubbins were washed with seawater filtered onto 0.02-μm filters to eliminate viruses and prokaryotes. Each microcosm was prepared with a replicate set of nubbins (n=3) immersed in sterile polyethylene bags (Whirl-pack, Nasco, Fort Atkinson, Wis., USA) filled with 2 L filtered seawater. A total of 27 microcosms were prepared, in order to test 20 ingredients with the respective positive and negative controls. The microcosms were incubated at in situ temperature and light conditions for 72 hours.
(§2) After subsampling, sea water was transferred into sterile test tubes without use of fixatives and stored at −20° C. until laboratory analysis for quantification of viral and prokaryotic abundance. Once in laboratory, the water samples were immediately processed. Briefly, 200 uL sea water were diluted 1:10 with prefiltered MilliQ water, through 0.02-μm pore filters (Anodisc filter; 25-mm diameter, Al2O3; Whatman) and stained with 20 μL SYBR Green (stock solution diluted 1:20; Invitrogen, Carlsbad, Calif., USA). […] Slides were stored at −20° C. until microscopy analysis. Virus and prokaryote counts were obtained by epifluorescence microscopy (magnification, ×1000; Zeiss Axioplan) by examining at least 10 optical fields, that is, at least 200 cells or viruses per replicate. Viral (and prokaryotic) enrichment was calculated as ratio between virus (and prokaryote) abundances and virus (and prokaryote) abundance at the […] of the experiment.

[2] = system: prokaryotes in water surrounding coral nubbins; assay: Prokaryotic (bacterial) abundance and enrichment in seawater surrounding coral nubbins (microcosm incubation); details: seawater surrounding Acropora sp. nubbins
Description: as §1, §2

[3] = system: symbiotic zooxanthellae released from coral nubbins; assay: Zooxanthellae counts: zooxanthellae released in water surrounding coral nubbins; assay type: in vivo, Acropora sp.; details: for Healthy zooxanthellae released / Pale zooxanthellae released / Total zooxanthellae released / Transparent (i.e., dead) zooxanthellae released: end of incubation (72 h); for Percentage of healthy zooxanthellae released / Percentage of pale zooxanthellae released / Percentage of transparent zooxanthellae released: of total released; for Abundance of released zooxanthellae compared with the BLK system: statistical analysis, P<0.01
Description: as §1
Subsamples (50 mL) of seawater surrounding coral nubbins were collected at the start of the experiment (T0) and after 6, 12, 24, 36, 48 and 72 hours of incubation. The subsamples were fixed in 3% glutaraldehyde and then about 6.0 ml of each replicate was filtered through 2.0-μm polycarbonate filters. Filters were mounted on glass slides and zooxanthellae counted under epifluorescence microscopy (Zeiss Axioplan, Carl Zeiss Inc., Jena, Germany; ×400 and ×1000) using standard and UV light.

[4] = system: stony coral Acropora sp. nubbins; assay: Quantification of coral bleaching by colorimetric (CMYK) analysis of digital photographs; assay type: in vivo; details: for Number of color channels (of 4, CMYK) significantly altered: after 72 h of incubation; for One-way ANOVA probability level, color component Black (K) / One-way ANOVA probability level, color component Cyan (C) / One-way ANOVA probability level, color component Magenta (M) / One-way ANOVA probability level, color component Yellow (Y): coral color change, start vs after treatment
Description: as §1
Photographs were taken under identical illumination with a Canon PowerShot A620 digital camera (Canon Inc., Tokyo, Japan) with a scale meter on the background. The photos were successively analyzed with a photo-editing software (Adobe Photoshop CS2) for color composition [cyan, magenta, yellow, black (CMYK)]. Levels of bleaching were measured as the difference between the corals' color at the beginning of the experiment and after treatments. Variations in the percentage of the different color components (CMYK) were analyzed with one-way analysis of variance (ANOVA). To rank the bleaching effect due to the compounds tested, a Bray-Curtis similarity matrix was prepared and a multidimensional scaling analysis of the shifts in CMYK color composition of treated corals was performed using Primer 5.0 software (Primer-E Ltd., Plymouth, UK). Bleaching rates were measured as the dissimilarity percentage in CMYK color composition between treated and control corals using the SIMPER tool of Primer 5.0 software (Primer-E Ltd).

coral reefs = assay: Summary of eco-compatibility of tested products with coral reefs; set-up: species or system Acropora sp.
Description: In order to select the most eco-compatible products for each group of compounds (i.e., base cream, fragrance, antioxidants and filters) the following criteria were selected:
1. coral bleaching level; 2. degree of release of symbiotic zooxanthellae; 3. zooxanthellae health conditions; 4. viral enrichment in the incubation medium with respect to controls.

Compound	Abundance of released zooxanthellae compared with the BLK system [3]	Total viral abundances (TVN) ([1]; incubation 0 (start)) [viruses ml^−1]	Total viral abundances (TVN) ([1]; incubation 12 h) [viruses ml^−1]	Viral enrichment factor (VEF) [1]	Bacterial abundance (total bacterial number, TBN) ([2]; incubation 0 (start))	Bacterial abundance (total bacterial number, TBN) ([2]; incubation 12 h)	Healthy zooxanthellae released [3] [cells ml^−1]	Pale zooxanthellae released [3] [cells ml^−1]	Total zooxanthellae released [3] [cells ml^−1]	Transparent (i.e., dead) zooxanthellae released [3] [cells ml^−1]	Percentage of healthy zooxanthellae released ([3]; end of incubation) [%]	Percentage of pale zooxanthellae released ([3]; end of incubation) [%]	Percentage of transparent zooxanthellae released ([3]; end of incubation) [%]	further results
2-phospho-ascorbic acid trisodium salt [System D18]	significantly higher	3.70E+05	2.51E+06	7.09	3.86E+04	1.39E+06	1.14E+03	1.09E+04	2.11E+04	9.06E+03	5	52	43	Final abundance of zooxanthellae in water surrounding the coral nubbins ([3]; end of incubation): 4.45 ×10^4 cell ml^−1; Number of color channels (of 4, CMYK) significantly altered [4]: 4; One-way ANOVA probability level, color component Black (K) [4]: ** (** = P < 0.01); One-way ANOVA probability level, color component Cyan (C) [4]: ** (** = P < 0.01); One-way ANOVA probability level, color component Magenta (M) [4]: ** (** = P < 0.01); One-way ANOVA probability level, color component Yellow (Y) [4]: * (* = P < 0.05)
CC(C)(C)CC(C)(C)c1cc(Cc2cc(C(C)(C)CC(C)(C)C)cc(-n3nc4ccccc4n3)c2O)c(O)c(-n2nc3ccccc3n2)c1 [System D22]		5.06E+05	2.99E+06	6.16	5.47E+04	9.18E+05	4.70E+02	6.91E+03	1.80E+04	1.06E+04	3	38	59	Decrease of VPR ([1]; after incubations): up to 10 times; Eco-compatibility (coral reefs; criteria: bleaching level, zooxanthellae release, zooxanthellae health, viral enrichment, listed as MBBT): greater eco-compatibility; also recorded: Highly compatible
CCCCC(CC)COC(=O)c1ccc(Nc2nc(Nc3ccc(C(=O)OCC(CC)CCCC)cc3)nc(Nc3ccc(C(=O)OCC(CC)CCCC)cc3)n2)cc1 (stereo not drawn) [System D24, ethylhexyl triazone]		9.58E+04	1.08E+06	12.58	2.09E+04	7.41E+05	2.68E+02	8.39E+03	1.89E+04	1.02E+04	1	44	54	Eco-compatibility (coral reefs): Compatible
C/C=C/C=C/C(=O)O [sorbic acid]														Harm to the marine environment of coral reefs (coral reefs): did not prove harmful
CO[C@@]12[C@H](COC(N)=O)C3=C(C(=O)C(C)=C(N)C3=O)N1C[C@@H]1N[C@@H]12 [MITO, Mitomycin C, reference compound]		1.11E+05	1.53E+06		1.11E+05	1.53E+06	0.00E+00	5.25E+03	2.20E+04	1.68E+04	0	24	76	Number of color channels (of 4, CMYK) significantly altered [4]: 4; One-way ANOVA probability level, color component Black (K) [4]: ** (** = P < 0.01); One-way ANOVA probability level, color component Cyan (C) [4]: ** (** = P < 0.01); One-way ANOVA probability level, color component Magenta (M) [4]: ** (** = P < 0.01); One-way ANOVA probability level, color component Yellow (Y) [4]: ** (** = P < 0.01)
CCCCCCOC(=O)c1ccccc1C(=O)c1ccc(N(CC)CC)cc1O [System D25, 2-[4-(diethylamine)-2-hydroxybenzoyl]hexyl benzoate]		3.67E+05	2.63E+06	7.44	3.67E+05	2.63E+06	3.35E+02	8.86E+03	1.64E+04	7.25E+03	2	54	44	Eco-compatibility (coral reefs; criteria: bleaching level, zooxanthellae release, zooxanthellae health, viral enrichment, listed as DHHB): greater eco-compatibility; also recorded: Highly compatible

Second part, led by results:

Abundance of released zooxanthellae compared with the BLK system [3]	Compound	Total viral abundances (TVN) ([1]; incubation 0 (start)) [viruses ml^−1]	Total viral abundances (TVN) ([1]; incubation 12 h) [viruses ml^−1]	Viral enrichment factor (VEF) [1]	Bacterial abundance (total bacterial number, TBN) ([2]; incubation 0 (start))	Bacterial abundance (total bacterial number, TBN) ([2]; incubation 12 h)	Healthy zooxanthellae released [3] [cells ml^−1]	Pale zooxanthellae released [3] [cells ml^−1]	Total zooxanthellae released [3] [cells ml^−1]	Transparent (i.e., dead) zooxanthellae released [3] [cells ml^−1]	Percentage of healthy zooxanthellae released ([3]; end of incubation) [%]	Percentage of pale zooxanthellae released ([3]; end of incubation) [%]	Percentage of transparent zooxanthellae released ([3]; end of incubation) [%]	further results
significantly higher	Cc1c(C)c2c(c(C)c1O)CC[C@@](C)(CCC[C@H](C)CCC[C@H](C)CCCC(C)C)O2 [System D16, Alpha-tocopherol]	3.24E+05	1.46E+06	4.54	3.78E+04		4.09E+03	1.25E+04	2.67E+04	1.01E+04	15	47	38	Eco-compatibility (coral reefs; criteria: bleaching level, zooxanthellae release, zooxanthellae health, viral enrichment, listed as Tocopherol): Highly compatible; Eco-compatibility (coral reefs; criteria: bleaching level, zooxanthellae release, zooxanthellae health, viral enrichment, listed as tocopherol): greater eco-compatibility
significantly higher	CC(=O)Oc1c(C)c(C)c2c(c1C)CCC(C)(CCC[C@H](C)CCC[C@H](C)CCCC(C)C)O2 (mixture of isomers) [System D17, DL-tocopherol-acetate]	3.49E+05	2.83E+06	8.36	5.80E+04	1.42E+06	1.48E+03	1.88E+04	4.45E+04	2.42E+04	3	42	54	Eco-compatibility (coral reefs; criteria: bleaching level, zooxanthellae release, zooxanthellae health, viral enrichment, listed as Tocopheryl acetate): Highly compatible; Eco-compatibility (coral reefs; criteria: bleaching level, zooxanthellae release, zooxanthellae health, viral enrichment, listed as tocopheryl acetate): greater eco-compatibility
